Key:
[1] = tested on: patients with rheumatoid arthritis (RA); test: Multicenter, randomized, double-blind, placebo-controlled study of D2E7 in RA patients: efficacy (ACR response); assay type: in vivo, human
Description: (§1) A study was designed and conducted to investigate the safety and efficacy of D2E7 40 mg administered every other week to patients with RA whose disease was not adequately treated with their current anti-rheumatic therapies (including accepted DMARDs, NSAIDs, or steroids); and was a multicenter, randomized, double-blind, placebo-controlled study in which D2E7 was subcutaneously (sc) administered every other week for up to 24 weeks at a dosage of 40 mg to patients with rheumatoid arthritis (RA) whose disease was not adequately treated with their current anti-rheumatic therapies. Anti-rheumatic therapies permitted for use during the study included accepted disease-modifying anti-rheumatic drugs (DMARDs), non-steroidal anti-inflammatory drugs (NSAIDs), or steroids. Despite using anti-rheumatic therapies, patients must have had active disease documented at both the screening and baseline visits. Doses of DMARDs, as well as concomitant prednisone (<10 mg daily) and NSAIDs, were required to be stable for at least 28 days prior to screening. Additionally, patients using azathioprine and/or cyclosporine discontinued these therapies and underwent a 28-day washout period before screening. At the baseline visit, patients were randomized to D2E7 or placebo and this signified the start of the 24-week placebo-controlled period. Patients were examined at Weeks 2, 4, 8, 12, 16, 20 and 24 of the study.
Patients were inadequately treated with their current anti-rheumatic therapies and had active RA, defined as ≧6 swollen joints and ≧9 tender joints. Additionally, patients using glucocorticoids were allowed into the study if the dose was equivalent to ≦10 mg/day prednisone and had remained unchanged for at least 28 days.
D2E7 was supplied in 2-mL glass vials (the concentration of D2E7 in each vial was 25 mg/mL (ie, 40 mg/1.6 mL)), each containing 40 mg D2E7/1.6 mL solution for injection. D2E7 was manufactured and supplied by Ebewe Arzneimittel GmbH, in Unterach, Austria. McKesson, FIBOC Biosciences, in Rockville, Md., USA, packaged, labeled, stored and distributed D2E7 to the investigators at, each site for this study. D2E7 was self-administered as a single sc injection of 40 mg every other week for a period of 24 weeks. The concentration of study drug was 25 mg/mL. Placebo/1.6 mL (citrate-phosphate buffer solution without D2E7) was self-administered as a single sc injection every other week for a period of 24 weeks.
Patients continued to receive their pre-study dose of anti-rheumatic therapies. Anti-rheumatic therapies permitted for use during the study included DMARDs (hydroxychloroquine, leflunomide, methotrexate, parenteral gold, oral gold and sulfasalazine, or any combination of these or other DMARDs), NSAIDs and steroids. Doses of these DMARDs as well as concomitant prednisone (≦10 mg daily) and NSAIDs must have been stable for at least 28 days prior to screening.
Efficacy endpoints included: ACR20 response at Week 24; ACR50 and ACR70 at Week 24; AUC (area under the curve) of ACR20, ACR50 and ACR70 from baseline to Week 24; time to first response for ACR20, ACR50 and ACR70; numeric ACR (ACR-N); change from baseline to Week 24 in components of the ACR response criteria (tender joint count [TJC], swollen joint count [SJC], patient assessment of pain, patient and physician global assessments of disease activity, HAQ and C-reactive protein [CRP]); change from baseline to Week 24 in physical function as measured by SF-36, health utilities index (HUI), functional assessment of chronic illness therapy (FACIT) fatigue scale; Euro-QoL questionnaire; multidimensional assessment of fatigue (MAF) scale; subject summary survey; incidence and time to dose increases in background DMARD and/or steroid therapy; institution of new DMARD therapy for lack of clinical response; rheumatoid factor (RF); and morning stiffness.
Adverse events were summarized by frequency, percentage, as well as the rate per 100 patient-years. […]

[2] = tested on: patients with rheumatoid arthritis (RA); test: Multicenter, randomized, double-blind, placebo-controlled study of D2E7 in RA patients: safety (adverse events); assay type: in vivo, human
Description: as §1
D2E7 was supplied in 2-mL glass vials (the concentration of D2E7 in each vial was 25 mg/mL (ie, 40 mg/1.6 mL)), each containing 40 mg D2E7/1.6 mL solution for injection. D2E7 was manufactured and supplied by Ebewe Arzneimittel GmbH, in Unterach, Austria. McKesson, FIBOC Biosciences, in Rockville, Md., USA, packaged, labeled, stored and distributed D2E7 to the investigators at, each site for this study. […]
Adverse events were summarized by frequency, percentage, as well as the rate per 100 patient-years. […] All other efficacy variables were summarized descriptively (statistical characteristics, frequencies, percentages, confidence intervals) and analyzed by exploratory two-sided statistical tests. […]

[3] = Week 24, full analysis set excluding Site #7, N = 315
[4] = Week 24, subgroup Three or more DMARDs
[5] = Week 24, subgroup concomitant Antimalarial
[6] = Week 24, subgroup concomitant Leflunomide
[7] = Week 24, subgroup concomitant Methotrexate
[8] = Week 24, subgroup concomitant Sulfasalazine
[9] = added to existing DMARD therapies

Substance: D2E7: recombinant, neutralizing human anti-hTNFα antibody; VL region SEQ ID NO: 1, VH region SEQ ID NO: 2
- ACR70 response, N of patients responding ([1]; Week 24, N = 315): 47
- ACR-N Mean ± SD ([1]; Week 24, N = 315): 20.3 ± 55.2
- Time to response ACR20: % of patients responding for the first time [1, 3]: (1.0) %
- Time to response ACR20: N of patients responding for the first time [1, 3]: 3
- Time to response ACR50: % of patients responding for the first time [1, 3]: (3.2) %
- Time to response ACR50: N of patients responding for the first time [1, 3]: 10
- Time to response ACR70: % of patients responding for the first time [1, 3]: (2.5) %
- Time to response ACR70: N of patients responding for the first time [1, 3]: 8
- ACR20 % Response ([1]; Week 24, subgroup No DMARD): 50.0%
- ACR50 % ([1]; Week 24, subgroup No DMARD): 27.8%
- ACR70 % ([1]; Week 24, subgroup No DMARD): 18.5%
- ACR-N Mean ± SD ([1]; Week 24, subgroup No DMARD): 12.8 ± 68.2
- ACR20 % Response ([1]; Week 24, subgroup One DMARD): 55.4%
- ACR50 % ([1]; Week 24, subgroup One DMARD): 31.0%
- ACR70 % ([1]; Week 24, subgroup One DMARD): 16.3%
- ACR-N Mean ± SD ([1]; Week 24, subgroup One DMARD): 22.8 ± 56.0
- ACR20 % Response ([1]; Week 24, subgroup Other DMARDs): 52.0%
- ACR50 % ([1]; Week 24, subgroup Other DMARDs): 24.0%
- ACR70 % ([1]; Week 24, subgroup Other DMARDs): 16.0%
- ACR-N Mean ± SD ([1]; Week 24, subgroup Other DMARDs): 25.3 ± 33.9
- ACR20 % Response [1, 4]: 45.5%
- ACR50 % [1, 4]: 18.2%
- ACR70 % [1, 4]: 9.1%
- ACR-N Mean ± SD [1, 4]: 20.1 ± 37.2
- ACR20 % Response ([1]; Week 24, subgroup Two DMARDs): 50.0%
- ACR50 % ([1]; Week 24, subgroup Two DMARDs): 27.3%
- ACR70 % ([1]; Week 24, subgroup Two DMARDs): 9.1%
- ACR-N Mean ± SD ([1]; Week 24, subgroup Two DMARDs): 19.5 ± 42.3
- ACR20 % Response [1, 5]: 50.7%
- ACR50 % [1, 5]: 29.3%
- ACR70 % [1, 5]: 12.0%
- ACR-N Mean ± SD [1, 5]: 20.0 ± 45.5
- ACR20 % Response [1, 6]: 33.3%
- ACR50 % [1, 6]: 14.3%
- ACR70 % [1, 6]: 0.0%
- ACR-N Mean ± SD [1, 6]: −0.5 ± 77.5
- ACR20 % Response [1, 7]: 56.7%
- ACR50 % [1, 7]: 30.9%
- ACR70 % [1, 7]: 15.2%
- ACR-N Mean ± SD [1, 7]: 26.5 ± 42.3
- ACR20 % Response [1, 8]: 58.6%
- ACR50 % [1, 8]: 34.5%
- ACR70 % [1, 8]: 17.2%
- ACR-N Mean ± SD [1, 8]: 21.4 ± 53.9
- Subgroup analyses: ACR20, ACR50, ACR70, ACR-N and their AUC ([1]; concomitant methotrexate, antimalarial treatments, sulfasalazine, other DMARDs, or 0, 1, 2, or ≧3 DMARDs, vs placebo): greater improvement
- Response compared to placebo ([1]; in combination with methotrexate, antimalarial treatments, sulfasalazine, other DMARDs, or 0, 1, 2, or ≧3 DMARDs): higher response compared to placebo
- Improvement in RA ([1]; patients inadequately treated with existing DMARD therapies): significant improvement in RA
- Time to response and AUC for ACR20, ACR50, ACR70; AUC for ACR-N; Euro-QoL, RF, MAF scale ([1]; vs placebo): improvement in therapeutic response over placebo
- Safety ([2]; 40 mg, alone or in combination with other DMARDs): safe
- Incidence or profile of adverse events [2, 9]: not associated with any major changes in the incidence or profile of adverse events
- Tolerability [2, 9]: generally well-tolerated
